One molecule from patent US20210059590A1, “IDENTIFICATION OF AND TREATMENT FOR PERSONS AT HIGH RISK FOR DEVELOPING MAJOR DEPRESSIVE DISORDER” (The Trustees of Columbia University in the City of New York, priority 2018, published 2021) can be followed below.

This data set in a line: Plasma free fraction (fP) of the PET tracer. The data set is classed as in vitro ADME, human. The note with it: for fraction unbound: human, plasma. The source says:
Arterial plasma radioactivity, metabolites, and plasma free fraction (fP) were collected and assayed as previously described (Parsey et al., 2006; Parsey et al., 2000). Unmetabolized parent fraction levels were fit with a Hill function (Wu et al., 2007). The input function was corrected for unmetabolized tracer by multiplying the total plasma counts with the interpolated parent fraction. The metabolite-corrected arterial input function was fit as the combination of a straight line and the sum of three decreasing exponentials, describing the function before and after the peak, respectively.

Structures are written as SMILES. Like-named read-outs stand apart in the source and are kept apart here.

As for `COc1ccccc1N1CCN(CCN(C(=O)C2CCCCC2)c2ccccn2)CC1` [[^11C]WAY-100635, N-[2-[4-(2-methoxyphenyl)-1-piperazinyl]ethyl]-N-2-pyridinylcyclohexanecarboxamide], the “Percent Free Fraction” value is 6.15 ± 1.72% (Depressed NRM MDD subjects, N=30, mean ± SD) and 8.10 ± 2.39% (Healthy Volunteers (HV), N=51, mean ± SD). Also, the fraction unbound is roughly 0.062 (Depressed NRM MDD subjects, N=30, mean ± SD, read-out: Percent Free Fraction); roughly 0.08 (Healthy Volunteers (HV), N=51, mean ± SD, read-out: Percent Free Fraction); 0.065 (High Risk (HR) subjects, N=9, mean ± SD, read-out: Percent Free Fraction); 0.07 ± 0.02 (Medication Exposed MDD patients, n=66, off antidepressants at least two weeks, read-out: Plasma free fraction (fp)); 0.06 ± 0.02 (Medication Naïve MDD patients, n=32, read-out: Plasma free fraction (fp)).
